Reference: publication PMC8020795 (Proceedings of the National Academy of Sciences of the …, 2021)

What was measured:
[1] = target: CXCR4 (Homo sapiens, UniProt P61073); test: PathHunter β-arrestin assay, chemokine receptor selectivity; assay type: cell-based
From the text: (§1) Table: List of genes examined by real-time PCR and the primer sequences used.
(§2) Genes Forward primers Reverse primers […]
(§3) Vim 5’-[…]-3’ 5’-[…]-3’ […]
(§4) Zeb2 5’-[…]-3’ 5’-[…]-3’
(§5) Twist1 5’-[…]-3’ 5’-[…]-3’
(§6) Cdh1 5’-[…]-3’ 5’-[…]-3’
(§7) Mta3 5’-[…]-3’ 5’-[…]-3’ […]
(§8) Off-target standard assays
(§9) Methods employed in this study have been adapted from the scientific literature to […]
(§10) maximize reliability and reproducibility. Reference standards were run as an integral part of […]
(§11) each assay to ensure the validity of the results obtained. Radioligand binding Assays were […]
(§12) performed under conditions described in the accompanying "Methods" section of this report […]
(§13) by Eurofins Panlabs, Inc (Taipei, Taiwan, ROC).
(§14) BPRCX807 were tested in the hERG (hERG-CHO, automated patch-clamp) assay and determined at Eurofins Panlabs (Missouri, USA). The experiment was accepted in accordance with Eurofins validation Standard Operating Procedure.
(§15) Selectivity Screening of various chemokine receptors
(§16) The results were performed by Eurofins DiscoverX (Fremont, California, USA). The […]
(§17) PathHunter® β -Arrestin assay was performed in a homogenous, non-imaging assay format […]
(§18) using a technology developed by DiscoverX called Enzyme Fragment Complementation […]
(§19) called Enzyme Acceptor (EA). PK and EA are then expressed as fusion proteins in the cell, […]
(§20) restoring β-Gal activity which is measured using chemiluminescent PathHunter® Detection […]

[2] = tested on: other chemokine receptors (10 CCRs, 7 CXCRs, and 1 CX3CR subtypes); test: as above; assay type: cell-based; conditions: 10 µM
From the text: as §1, §2, §3, §4, §5, §6, §7, §8, §9, §10, §11, §12, §13, §14, §15, §16, §17, §18, §19, §20

[3] = tested on: 65 other nonprimary targets (receptors and ion channels); test: Off-target standard assays, remaining panel; assay type: binding; conditions: 10 µM
From the text: as §1, §2, §3, §4, §5, §6, §7, §8, §9, §10, §11, §12, §13, §14, §15
The results were performed by Eurofins DiscoverX (Fremont, California, USA). The

[4] = in vivo; conditions: ICR, mouse, sc

Sequence of CXCR4 (P61073 whole entry): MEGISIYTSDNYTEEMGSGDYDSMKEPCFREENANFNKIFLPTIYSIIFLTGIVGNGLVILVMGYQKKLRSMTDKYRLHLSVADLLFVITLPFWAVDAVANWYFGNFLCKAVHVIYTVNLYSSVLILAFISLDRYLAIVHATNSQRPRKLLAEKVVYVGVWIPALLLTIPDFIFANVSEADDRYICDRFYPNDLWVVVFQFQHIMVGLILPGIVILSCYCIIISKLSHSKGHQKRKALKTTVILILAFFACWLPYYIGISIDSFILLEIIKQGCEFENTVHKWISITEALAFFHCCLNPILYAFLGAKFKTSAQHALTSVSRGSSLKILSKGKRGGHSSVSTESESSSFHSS

**Q.** What does the source list for `Cc1cc(NC2CCN(C(=O)CCNCC(=O)O)CC2)nc(NCc2nc(CCCNCCCNC3CCCCC3)co2)n1` [BPRCX807]?
**A.** inhibition at 10 µM [1]: 100%; Inhibition of other chemokine receptors (β-arrestin assay) [2]: < 10%; Inhibition of 65 other nonprimary targets [3]: < 50%; MTD [4]: 75 mg/kg
